The values below come from PubChem BioAssay AID1645871.

The Papp is the rate of passage across a membrane or cell layer, normalised by area and donor concentration. A high value points to fast passage.

For the series the following is noted: pampa; pH 5.0; 30.0 min; 50.0 µM.
As to `COC[C@@H]1CN(C(=O)c2n[nH]c3ccccc23)C[C@H]1c1nc(C)no1`, the Papp came out at 37.8 ×10⁻⁶ cm/s.
The molecule `Cc1ccccc1C(=O)Nc1ccc2c(c1)CCCN2C(=O)c1cccs1` gave a Papp of 561 ×10⁻⁶ cm/s.
Take `COc1ccc(N(C)C(=O)c2cc3c(s2)-c2ccccc2OC3)cc1`: the Papp turned out to be 963 ×10⁻⁶ cm/s.
The figure for `CC(C)c1ccc(OCc2nc3c(n2Cc2ccccc2)C(=O)N(CC2CCOCC2)CCN3)cc1` is 643 ×10⁻⁶ cm/s; for `CCc1ccc(C2C(C(=O)Nc3ccccc3OC)=C(C)Nc3c(C(=O)Nc4ccc(C)cc4)cnn32)cc1` (stereo unspecified) it is 288 ×10⁻⁶ cm/s; for `Fc1ccc(N2CCCN(CC3[C@H]4CNC[C@@H]34)CC2)cc1` (stereo partly specified) it is 48.8 ×10⁻⁶ cm/s.
The same measure for `Cc1cc(C)nc(NC(=S)N2CCN(Cc3ccc(C(F)(F)F)cc3)CC2)c1`: above 1000 ×10⁻⁶ cm/s; for `CCN(CC)CCCC(C)Nc1cc(/C=C/c2ccccc2Cl)nc2cc(Cl)ccc12` (stereo unspecified): 82.9 ×10⁻⁶ cm/s; for `O=C(Nc1ccccc1F)c1nc(S(=O)(=O)Cc2ccccc2F)ncc1Cl`: 505 ×10⁻⁶ cm/s.
Molecule `c1ccc(Nc2cc3c(cn2)CN(Cc2cccs2)CCN3)cc1` had a Papp of 106 ×10⁻⁶ cm/s.
`COc1ccc(-n2nc(C)c([C@@H]3C=C[C@@H](NCc4ccc(F)cc4)C3)c2C)cc1` showed a Papp of 482 ×10⁻⁶ cm/s. This Papp is about 4.5-fold higher than that of the molecule before.
The same measure for `COc1ccccc1Nc1cnc2ccc(-c3ccc(OC)c(OC)c3)nn12`: 621 ×10⁻⁶ cm/s; for `O=C(O)c1cccc(-c2noc(-c3ccccc3F)n2)c1`: 892 ×10⁻⁶ cm/s; for `CC[C@H]1CN2CCC3CC(OC)C(OC)CC3[C@@H]2C[C@@H]1C[C@H]1NCCC2=C1CC(OC)=C(O)C2` (stereo partly specified): 17.9 ×10⁻⁶ cm/s.
For the molecule `CCOC(=O)N1CCN(C(=O)Cn2sc3nc(C)cc(C)c3c2=O)CC1`, the Papp is 19.1 ×10⁻⁶ cm/s.
The molecule `C[C@@]1(c2ncncc2F)NC(=O)c2cc(-c3cn[nH]c3)ccc21` gave a Papp above 1000 ×10⁻⁶ cm/s.
The figure for `Cn1nnnc1Sc1ncnc2scc(-c3cc4ccccc4o3)c12` is 52.8 ×10⁻⁶ cm/s.
Turning to `COc1cccc(C(=O)Nc2nc(-c3nnn(-c4ccccc4C(F)(F)F)c3C)ns2)c1`, the Papp was determined as 834 ×10⁻⁶ cm/s.
With `CN(C)c1ccc(-c2cc[nH]c(=O)c2N)cc1`, the Papp was 171 ×10⁻⁶ cm/s.
Consider `COc1ccc(-c2cc(-c3ccccc3)nc(SCC(=O)Nc3ccccc3C)c2C#N)cc1`, for which the Papp was 587 ×10⁻⁶ cm/s.
For the molecule `COc1ccccc1NC(=O)C1=C(C)Nc2c(C(=O)Nc3cccc(C)c3)cnn2C1c1ccccc1Cl` (stereo unspecified), the Papp came out at 156 ×10⁻⁶ cm/s.
As for `CCCN1C(CC(C)C)=NS(=O)(=O)c2cc(NC(=O)c3cccs3)ccc21`, the Papp was determined as 275 ×10⁻⁶ cm/s.
`Cc1cc(NS(=O)(=O)c2ccc3c(c2)CCC(=O)N3)ccc1F` displayed a Papp of 463 ×10⁻⁶ cm/s.
The molecule `CCOc1ccc(-c2nnc(SCC(=O)NCc3ccccc3Cl)o2)cc1` gave a Papp of 2 ×10⁻⁶ cm/s.
In turn, `CCCCCn1cc2c(c1-c1ccc(Br)cc1)c(=O)n(C)c(=O)n2C` displayed a Papp of 946 ×10⁻⁶ cm/s.
With `Cc1cccc(-c2cc(NC(=O)c3ccccc3C)n(-c3ccccc3)n2)c1`, the Papp came to 786 ×10⁻⁶ cm/s.
The same measure for `Cc1cccc(-c2noc([C@@H]3Cc4nc[nH]c4CN3)n2)c1`: 169 ×10⁻⁶ cm/s; for `COc1ccc2[nH]cc(CCNC(=O)c3cnn(-c4ccc(C)cc4)c3C3CCN(C(=O)OC(C)(C)C)CC3)c2c1`: 689 ×10⁻⁶ cm/s.
The figure for `CN(C)CCOC1=Cc2ccccc2Sc2ccc(Cl)cc21` is 857 ×10⁻⁶ cm/s.
As for `COc1ccc2c(c1)CN(C(=O)CCN1CCC(Cc3ccccc3)CC1)CCS2`, the Papp was 807 ×10⁻⁶ cm/s.
Consider `CCOc1ccccc1C(=O)NC1CCN(c2cc(C)cc(C)c2)C1=O` (stereo unspecified), for which the Papp is above 1000 ×10⁻⁶ cm/s.
`O=C(NC1CC1)C1CCCN1C(=O)c1cccc(-c2ccccn2)c1` (stereo unspecified) showed an apparent permeability coefficient (Papp) of 76.5 ×10⁻⁶ cm/s.
Turning to `COc1ccc2[nH]c(C[C@@H]3C[C@@H](C(C)C)[C@H](CNCc4ccccc4O)C=C3C)nc2n1`, the Papp amounted to 739 ×10⁻⁶ cm/s. This Papp lies about 9.7-fold higher than the previous one.
Consider `COc1cc2ncnc(Oc3cccc(NC(=O)Nc4cc(C(C)(C)C(F)(F)F)on4)c3)c2cc1OC`, for which the Papp turned out to be 137 ×10⁻⁶ cm/s.
`COc1ccc(NC(=O)c2ccc[nH]2)cc1S(=O)(=O)Nc1ccc(Br)cc1` displayed a Papp above 1000 ×10⁻⁶ cm/s.
The figure for `COc1ncc(-c2ccc3c(Nc4cc(Oc5cc(F)cc(F)c5)cc(C(=O)O)c4)c(S(=O)(=O)NC4CC4)cnc3c2)c(OC)n1` is 1.2 ×10⁻⁶ cm/s.
`COc1ccc(-c2[nH]nc3ncc(-c4ccc(CO)cc4)nc23)cc1F`: the Papp came out at 428 ×10⁻⁶ cm/s.
On to `CN1CCN(C(=O)Cc2c[nH]c3ncc(-c4ccccc4Oc4ccccc4)cc23)CC1`, for which the Papp was 578 ×10⁻⁶ cm/s.
The same measure for `Nc1c(-c2ccncc2)cc[nH]c1=O`: 2.72 ×10⁻⁶ cm/s; for `CCN1CCN(c2ncc3c(n2)CCN(Cc2cc(Br)cs2)C3)CC1`: 77.1 ×10⁻⁶ cm/s; for `FC(F)(F)c1ccc(CN2CCNc3cc(Nc4ccccc4)ncc3C2)cc1`: 21.1 ×10⁻⁶ cm/s.
In turn, `COc1ccc(-c2ccc3ncc(Nc4ccncc4)n3n2)cc1OC` displayed a Papp of 26.2 ×10⁻⁶ cm/s. This Papp and that of the molecule before are within 1.5-fold of each other.
Take `COC[C@@H]1CN(C(=O)c2nn(C)c3ccccc23)C[C@H]1c1nc(C)no1`: the Papp was determined as 65.3 ×10⁻⁶ cm/s.
As to `Clc1ccc(C2(c3ccc(-c4cn[nH]c4)cc3)CCNCC2)cc1`, the Papp amounted to 3.6 ×10⁻⁶ cm/s.
The molecule `COc1ccc(-c2ccc3ncc(Nc4ccc(C(N)=O)cc4)n3n2)cc1OC` returned a Papp of 81.8 ×10⁻⁶ cm/s.
Take `Cc1ccc2nc(-c3cc(NC(=O)c4ccc5c(c4)OCCO5)ccc3Cl)oc2c1`: the Papp amounted to 28.6 ×10⁻⁶ cm/s.
